The values below come from US20250170237A1, “MURAMYL DIPEPTIDES AND PROCESS FOR PREPARATION THEREOF” (priority 2022, published 2025).

The test system of data set [1] is OVA antigen. In words: IgG titer with OVA antigen (indirect ELISA, immunized mice). The data set is classed as in vivo, BALB/c mice. The method, then:
(§1) Adjuvanticity of 15b was evaluated using antigens (OVA, HBsAg, DENV and JEV) in BALB/c mice model—From the immunized mice retro-orbital sampling or retro-orbital blood was collected on 14th and 28th day before sacrifice. Serum was separated by centrifugation at 12,500 rpm for 5 min. Transferred to a clean centrifuge tube and store at −80 until used.
(§2) The plates were coated with antigen in carbonate buffer. Plates were incubated at 4° C. overnight. They were then washed 3 times with PBS/Tween, and non-specific binding sites were blocked by adding 200 μl of blocking solution. Plates were incubated at room temperature for 1 h. Then 3 times wash is done, diluted standards and samples to desired concentrations in blocking solution were added to the plates. Incubate at 37° C. for 1 h or at 4° C. overnight. Plates were washed 3 times with PBS/Tween. Avidin-Horseradish Peroxidase (Av-HRP) was diluted and added. Incubated at room temperature for 30 min. Plates were washed 3 times with PBS/Tween. OPD Substrate was added and plates were incubated at room temperature (4-30 min) for colour development. The colour reaction was stopped by adding 50 μl of stop solution. Optical density (OD) was read at 492 nm.
In general terms: An ELISA detects its analyte on a solid surface through an enzyme-linked reagent.

The nature of data set [2]: In vitro Hemolysis assay. The settings on record: even at higher concentrations.
Data set [3] deals with cytokines IL-1, IL-2, IL-4, IFN, IL-6, IL-10, IL-12, TNF. In words: Post JEV immunization In vivo cytokine assay. Set-up: species or system BALB/c mice. The method, then:
ELISA was carried out by Bio Legend capture and detection antibodies. Briefly, 96-well plates were coated with capture antibody dissolved in coating buffer per well incubated overnight at 4° C. Wells were blocked with BSA for 1 h at RT. After blocking, 50 μL/well of serum was added and incubated for 3 h. After washing, Biotinylated secondary antibody was added along with enzyme. Plates were incubated for 1 h at RT. Then plates were washed and TMB substrate solution was added. The reaction was stopped after 30 min with a stopping solution. Absorbance was measured at 450 nm with a plate reader.

Data set [4] concerns splenocytes. In words: Post JEV immunization In vivo splenocyte proliferation assay. Set-up: species or system BALB/c mice. The method, then:
Splenocytes were seeded into 96-well flat-bottom microtiter plates having 1×10^5 cells/well in […] complete RPMI-1640 medium. Plates were incubated at 37° C. with 5% CO2. After 48 h, […] MTT solution (5 mg/mL) was added to each well and left to incubate for next 4 h. Untransformed MTT ([…]) was removed from each well by pipetting. A total of […] of DMSO was added and the absorbance was evaluated in an ELISA reader at 630 nm on the multimode reader (Infinite 200 Pro, Switzerland) after 15 min

For data set [5], the system named is JEV antigen. In words: IgG titer with JEV antigen. The data set is classed as in vivo, BALB/c mice. The method, then:
as §1, §2

The test system of data set [6] is antigens (OVA, HBsAg, DENV and JEV). In words: Serum anti-antigens (OVA, HBsAg, DENV and JEV) IgG titer, overall statements. It counts as in vivo, BALB/c mice. Particulars: 15b against Ovalbumin, DEV, 15f against JEV. The method, then: as §1, §2

On to `C[C@H](NC(=O)[C@@H](C)O[C@H]1[C@H](O)[C@@H](CO)OC(O)[C@@H]1NC(=O)C1CCCC1)C(=O)N[C@H](CCC(=O)O)C(N)=O` (stereo partly drawn) [15d, (4R)-5-amino-4-((2S)-2-((2R)-2-(((3R,4R,5S,6R)-3-(cyclopentanecarboxamido)-2,5-dihydroxy-6-(hydroxymethyl)tetrahydro-2H-pyran-4-yl)oxy)propanamido)propanamido)-5-oxopentanoic acid], for which the “IgG titer with OVA antigen” value in data set [1] (dose 1 μg) is 3200-12400; in data set [1] (dose 10 μg) it was 3200-41600; in data set [1] (dose 100 μg), 6400-84000.
`CCCCCCCC(=O)OCCCCCCCC(=O)N[C@H]1C(O)O[C@H](CO)[C@@H](O)[C@@H]1O[C@H](C)C(=O)N[C@@H](C)C(=O)N[C@H](CCC(=O)O)C(N)=O` (stereo partly drawn) [15 h, (4R)-5-amino-4-((2S)-2-((2R)-2-(((3R,4R,5S,6R)-2,5-dihydroxy-6-(hydroxymethyl)-3-(8-(octanoyloxy)octanamido)tetrahydro-2H-pyran-4-yl)oxy)propanamido)propanamido)-5-oxopentanoic acid]: the “IgG titer with OVA antigen” value in data set [1] (dose 1 μg) was 8750-64000; in data set [1] (dose 10 μg), 10000-50000; in data set [1] (dose 100 μg), 3750-25000.
On to `C[C@H](NC(=O)[C@@H](C)O[C@H]1[C@H](O)[C@@H](CO)OC(O)[C@@H]1NC(=O)C1CCC1)C(=O)N[C@H](CCC(=O)O)C(N)=O` (stereo partly drawn) [15c, (4R)-5-amino-4-((2S)-2-((2R)-2-(((3R,4R,5S,6R)-3-(cyclobutanecarboxamido)-2,5-dihydroxy-6-(hydroxymethyl)tetrahydro-2H-pyran-4-yl)oxy)propanamido)propanamido)-5-oxopentanoic acid], for which the figures for the “IgG titer with OVA antigen” value in data set [1] (dose 1 μg), in data set [1] (dose 10 μg) and in data set [1] (dose 100 μg) were 25000-102400, 10000-85000 and 5500-75000, respectively.
In the case of `CCCCCCCCCCCC(=O)OCCCCCCCC(=O)N[C@H]1C(O)O[C@H](CO)[C@@H](O)[C@@H]1O[C@H](C)C(=O)N[C@@H](C)C(=O)N[C@H](CCC(=O)O)C(N)=O` (stereo partly drawn) [15g, (4R)-5-amino-4-((2S)-2-((2R)-2-(((3R,4R,5S,6R)-3-(8-(dodecanoyloxy)octanamido)-2,5-dihydroxy-6-(hydroxymethyl)tetrahydro-2H-pyran-4-yl)oxy)propanamido)propanamido)-5-oxopentanoic acid], the “IgG titer with OVA antigen” value in data set [1] (dose 1 μg) is recorded as 25000-124000; in data set [1] (dose 10 μg), 10000-60000; in data set [1] (dose 100 μg), 5000-35000.
The corresponding values for `C[C@H](NC(=O)[C@@H](C)O[C@H]1[C@H](O)[C@@H](CO)OC(O)[C@@H]1NC(=O)C1CCCCC1)C(=O)N[C@H](CCC(=O)O)C(N)=O` (stereo partly drawn) [15e, (4R)-5-amino-4-((2S)-2-((2R)-2-(((3R,4R,5S,6R)-3-(cyclohexanecarboxamido)-2,5-dihydroxy-6-(hydroxymethyl)tetrahydro-2H-pyran-4-yl)oxy)propanamido)propanamido)-5-oxopentanoic acid] are 1600-12400, 1600-41600 and 12800-96000.
As for `CCCCCCCCCCCCCC(=O)OCCCCCCCC(=O)N[C@H]1C(O)O[C@H](CO)[C@@H](O)[C@@H]1O[C@H](C)C(=O)N[C@@H](C)C(=O)N[C@H](CCC(=O)O)C(N)=O` (stereo partly drawn) [15f, (4R)-5-amino-4-((2S)-2-((2R)-2-(((3R,4R,5S,6R)-2,5-dihydroxy-6-(hydroxymethyl)-3-(8-(tetradecanoyloxy)octanamido)tetrahydro-2H-pyran-4-yl)oxy)propanamido)propanamido)-5-oxopentanoic acid], the “toxicity and hemolysis, conclusion in words” value in data set [2] is “non-toxic and non-hemolytic”. For the same molecule, the results for the TNF in data set [3] (dose 5 μG (Table 24)), in data set [3] (dose 20 μG (Table 24)) and in data set [3] (dose 50 μG (Table 24)) were 624 to 654 pg/mL, 898 to 942 pg/mL and 1024 to 1124 pg/mL, respectively. The IL-1 fell in the range of 745 to 845 pg/mL in data set [3] (dose 5 μG (Tables 22, 24)); 1059 to 1124 pg/mL in data set [3] (dose 20 μG (Tables 22, 24)); 1487 to 1634 pg/mL in data set [3] (dose 50 μG (Tables 22, 24)). For the same molecule, the IL-2 in data set [3] (dose 5 μG (Tables 22, 24)) was in the range of 41 to 52 pg/mL; in data set [3] (dose 20 μG (Tables 22, 24)), 52 to 64 pg/mL; in data set [3] (dose 50 μG (Tables 22, 24)), 69 to 76 pg/mL. Also, the IL-4 fell in the range of 134 to 155 pg/mL in data set [3] (dose 5 μG (Tables 22, 24)); 138 to 146 pg/mL in data set [3] (dose 20 μG (Tables 22, 24)); 148 to 164 pg/mL in data set [3] (dose 50 μG (Tables 22, 24)). Besides, the IL-10 was in the range of 243 to 294 pg/mL in data set [3] (dose 5 μG (Tables 22, 24)); 398 to 421 pg/mL in data set [3] (dose 20 μG (Tables 22, 24)); 424 to 487 pg/mL in data set [3] (dose 50 μG (Tables 22, 24)). The IL-12 was in the range of 124 to 147 pg/mL in data set [3] (dose 5 μG (Tables 22, 24)); 175 to 194 pg/mL in data set [3] (dose 20 μG (Tables 22, 24)); 136 to 147 pg/mL in data set [3] (dose 50 μG (Tables 22, 24)). Further, the results for the “Splenocyte proliferation, Con A” value in data set [4] (dose 5 μG (Table 25)), in data set [4] (dose 20 μG (Table 25)) and in data set [4] (dose 50 μG (Table 25)) were 125-141, 134-142 and 245-264, respectively. Also, the “Splenocyte proliferation, JEV” value is 139-147 in data set [4] (dose 5 μG (Table 25)) and 149-162 in data set [4] (dose 20 μG (Table 25)). Besides, the “Splenocyte proliferation, LPS” value in data set [4] (dose 5 μG (Table 25)) is reported as 124-134; in data set [4] (dose 20 μG (Table 25)) it was 128-137; in data set [4] (dose 50 μG (Table 25)) it was 184-192. Besides, the results for the “IgG titer with JEV antigen” value in data set [5] (dose 5 μG (Table 21)), in data set [5] (dose 20 μG (Table 21)) and in data set [5] (dose 50 μG (Table 21)) were 80000-160000, 160000-640000 and 640000-9560000, respectively. In addition, the results for the “IgG titer with OVA antigen” value in data set [1] (dose 1 μg), in data set [1] (dose 10 μg) and in data set [1] (dose 100 μg) were 8000-25400, 5000-41600 and 200000-960000, respectively. Moreover, in data set [6], the “antibody titer, conclusion in words” value is on record as “significant antibody titer”.
In the case of `C[C@H](NC(=O)[C@@H](C)O[C@H]1[C@H](O)[C@@H](CO)OC(O)[C@@H]1NC(=O)C1CCCO1)C(=O)N[C@H](CCC(=O)O)C(N)=O` (stereo partly drawn) [15i, (4R)-5-amino-4-((2S)-2-((2R)-2-(((3R,4R,5S,6R)-2,5-dihydroxy-6-(hydroxymethyl)-3-(tetrahydrofuran-2-carboxamido)tetrahydro-2H-pyran-4-yl)oxy)propanamido)propanamido)-5-oxopentanoic acid], the “IgG titer with OVA antigen” value was 4800-50000 in data set [1] (dose 1 μg), 102400-560000 in data set [1] (dose 10 μg) and 119466-484000 in data set [1] (dose 100 μg).

B1: OVA (protein, UniProt P01012 2-386, looked up)
Ovalbumin: GSIGAASMEFCFDVFKELKVHHANENIFYCPIAIMSALAMVYLGAKDSTRTQINKVVRFDKLPGFGDSIEAQCGTSVNVHSSLRDILNQITKPNDVYSFSLASRLYAEERYPILPEYLQCVKELYRGGLEPINFQTAADQARELINSWVESQTNGIIRNVLQPSSVDSQTAMVLVNAIVFKGLWEKAFKDEDTQAMPFRVTEQESKPVQMMYQIGLFRVASMASEKMKILELPFASGTMSMLVLLPDEVSGLEQLESIINFEKLTEWTSSNVMEERKIKVYLPRMKMEEKYNLTSVLMAMGITDVFSSSANLSGISSAESLKISQAVHAAHAEINEAGREVVGSAEAGVDAASVSEEFRADHPFLFCIKHIATNAVLFFGRCVSP
B1: in data set [1] (OVA 100 μg alone), the “IgG titer with OVA antigen” value is on record as 6400-12800.
